Test results reported in US8895561B2, “Compounds and methods for treating candidiasis and aspergillus infections” (Cellceutix Corporation, priority 2012, dated 2014).
In brackets after ≈: the same amount, converted by molar mass. Where two headings read alike, the source gives them in different places.

Tests used:
C. albicans GDH2346 = assay: Candida IC50, vegetative cells, by OD600 and fluorescence; type: cell-based; details: Candida albicans, GDH2346; vegetative cells; read-out: CA (Candida IC50)
Experimental: (§1) Candida IC50s were determined by OD600 and fluorescence from vegetative cells and by MTS viability assay in the hyphal state. MICs were determined using a broth microdilution assay under standard CLSI conditions Bacteria strains: E. coli 25922 (EC), S. aureus 27660 (SA), E. faecalis 29212 (EF), P. aeruginosa 10145 (PA), and K. pneumoniae 13883 (KP). Cytotoxicity (EC50) was determined against mouse 3T3 fibroblasts, human transformed liver HepG2 cells, and human oral keratinocyte cell line, OKF6/TERT using an MTS viability assay. Candida IC50s<10 μg/mL, MICs<5 μg/mL and cytotoxicity EC50s>100 μM are indicated in green. MICs>5 μg/mL and cytotoxicity EC50s<100 μM are indicated in red. Candida IC50s (CA) were determined by OD600 and fluorescence from vegetative cells. MICs were determined using a broth microdilution assay under standard CLSI conditions Bacteria strains: E. coli 25922 (EC), S. aureus 27660 (SA), E. faecalis 29212 (EF), P. aeruginosa 10145 (PA), and K. pneumoniae 13883 (KP). Cytotoxicity (EC50) was determined against mouse 3T3 fibroblasts and human transformed liver HepG2 cells using an MTS viability assay. For determination of anti-Candida IC50s, the method was modified by using RPMI/MOPS buffer pH 6.3 and by addition of FDGlu, a substrate for the yeast enzyme exoglucanase which is secreted during cell growth. This provides a fluorescent readout for cell growth which was used in addition to the traditional optical density measure of growth. OD600 and fluorescence were determined at 24 and 48 hours and the average of all 4 reads was used for the final IC50 determination.

P. aeruginosa 10145 = assay: Bacterial MIC, broth microdilution, CLSI; type: cell-based; details: Pseudomonas aeruginosa, 10145; read-out: PA (MIC)
Experimental: as §1, with “assay.” for “assay. For determination of anti-Candida IC50s, the method was modified by using RPMI/MOPS buffer pH 6.3 and by addition of FDGlu, a substrate for the yeast enzyme exoglucanase which is secreted during cell growth. This provides a fluorescent readout for cell growth which was used in addition to the traditional optical density measure of growth. OD600 and fluorescence were determined at 24 and 48 hours and the average of all 4 reads was used for the final IC50 determination.”

E. faecalis 29212 = assay: Bacterial MIC, broth microdilution, CLSI; type: cell-based; details: Enterococcus faecalis, 29212; read-out: EF (MIC)
Experimental: as §1, with “assay.” for “assay. For determination of anti-Candida IC50s, the method was modified by using RPMI/MOPS buffer pH 6.3 and by addition of FDGlu, a substrate for the yeast enzyme exoglucanase which is secreted during cell growth. This provides a fluorescent readout for cell growth which was used in addition to the traditional optical density measure of growth. OD600 and fluorescence were determined at 24 and 48 hours and the average of all 4 reads was used for the final IC50 determination.”

S. aureus 27660 = assay: Bacterial MIC, broth microdilution, CLSI; type: cell-based; details: Staphylococcus aureus, 27660; read-out: SA (MIC)
Experimental: as §1, with “assay.” for “assay. For determination of anti-Candida IC50s, the method was modified by using RPMI/MOPS buffer pH 6.3 and by addition of FDGlu, a substrate for the yeast enzyme exoglucanase which is secreted during cell growth. This provides a fluorescent readout for cell growth which was used in addition to the traditional optical density measure of growth. OD600 and fluorescence were determined at 24 and 48 hours and the average of all 4 reads was used for the final IC50 determination.”

E. coli 25922 = assay: Bacterial MIC, broth microdilution, CLSI; type: cell-based; details: Escherichia coli, 25922; read-out: EC (MIC)
Experimental: as §1, with “assay.” for “assay. For determination of anti-Candida IC50s, the method was modified by using RPMI/MOPS buffer pH 6.3 and by addition of FDGlu, a substrate for the yeast enzyme exoglucanase which is secreted during cell growth. This provides a fluorescent readout for cell growth which was used in addition to the traditional optical density measure of growth. OD600 and fluorescence were determined at 24 and 48 hours and the average of all 4 reads was used for the final IC50 determination.”

[1] = Cytotoxicity, MTS viability assay; type: cell-based, human
Experimental: Candida IC50s were determined by OD600 and fluorescence from vegetative cells and by MTS viability assay in the hyphal state. MICs were determined using a broth microdilution assay under standard CLSI conditions Bacteria strains: E. coli 25922 (EC), S. aureus 27660 (SA), E. faecalis 29212 (EF), P. aeruginosa 10145 (PA), and K. pneumoniae 13883 (KP). Cytotoxicity (EC50) was determined against mouse 3T3 fibroblasts, human transformed liver HepG2 cells, and human oral keratinocyte cell line, OKF6/TERT using an MTS viability assay. Candida IC50s<10 μg/mL, MICs<5 μg/mL and cytotoxicity EC50s>100 μM are indicated in green. MICs>5 μg/mL and cytotoxicity EC50s<100 μM are indicated in red.
Candida IC50s (CA) were determined by OD600 and fluorescence from vegetative cells. MICs were determined using a broth microdilution assay under standard CLSI conditions Bacteria strains: E. coli 25922 (EC), S. aureus 27660 (SA), E. faecalis 29212 (EF), P. aeruginosa 10145 (PA), and K. pneumoniae 13883 (KP). Cytotoxicity (EC50) was determined against mouse 3T3 fibroblasts and human transformed liver HepG2 cells using an MTS viability assay.
CLSI conditions Bacteria strains: clinical isolates; yeast strains: C. dubliniensis (NCPF3949), C. glabrata (ATCC 90030), C. krusei (ATCC 6258), C. parapsilosis (ATCC 22019), and C. tropicalis (ATCC 750). Cytotoxicity (EC50) was determined against mouse 3T3 fibroblasts, human transformed liver HepG2 cells, and human oral keratinocyte cell line, OKF6/TERT using an MTS viability assay.

[2] = human, HepG2 cells (transformed liver), read-out: HepG2 (cytotoxicity EC50)
[3] = mouse, 3T3 fibroblasts, read-out: 3T3 (cytotoxicity EC50)

Structure (SMILES)	IC50 (C. albicans GDH2346) [µg/mL]	MIC (P. aeruginosa 10145) [µg/mL]	MIC (E. faecalis 29212) [µg/mL]	MIC (S. aureus 27660) [µg/mL]	MIC (E. coli 25922) [µg/mL]	EC50 [1, 2] [µM]	EC50 [1, 3] [µM]
NCCCOc1cc(OCCCN)cc(-c2ccc3c4ccc(-c5cc(OCCCN)cc(OCCCN)c5)cc4n(CCCN)c3c2)c1 [Compound 143]	6.48 (≈ 9.69 µM)	50 (≈ 74.8 µM)	1.56 (≈ 2.33 µM)	0.39 (≈ 0.583 µM)	3.13 (≈ 4.68 µM)	140	222
CCn1c2ccc(-c3cccc(N(CCN)CCN)c3)cc2c2cc(-c3cccc(N(CCN)CCN)c3)ccc21 [Compound 155]	2.63 (≈ 4.78 µM)	12.5 (≈ 22.7 µM)	> 50	0.39 (≈ 0.709 µM)	12.5 (≈ 22.7 µM)		
N=C(N)NCCCCCc1cccc(-c2ccc3c4ccc(-c5cccc(CCCNC(=N)N)c5)cc4n(CCCNC(=N)N)c3c2)c1 [Compound 142]	1.65 (≈ 2.56 µM)	25 (≈ 38.8 µM)	6.25 (≈ 9.69 µM)	1.56 (≈ 2.42 µM)	3.13 (≈ 4.85 µM)	100	131
NCCCOc1cc(OCCCN)cc(-c2ccc3c(c2)c2ccccc2n3CCCN)c1 [Compound 145]	23.9 (≈ 53.6 µM)	50 (≈ 112 µM)	3.13 (≈ 7.01 µM)	25 (≈ 56 µM)	> 50	790	> 1000
NCCCn1c2cc(-c3cccc(O)c3)ccc2c2ccc(-c3cccc(O)c3)cc21 [Compound 149]	> 100	> 100	1.56 (≈ 3.82 µM)	0.049 (≈ 0.12 µM)	3.13 (≈ 7.66 µM)	20	29
NCCN(CCN)c1cccc(-c2ccc3[nH]c4ccc(-c5cccc(N(CCN)CCN)c5)cc4c3c2)c1 [Compound 156]	1.94 (≈ 3.72 µM)	12.5 (≈ 24 µM)	> 50	1.56 (≈ 2.99 µM)	1.56 (≈ 2.99 µM)	> 1000	487
NCCN(CCN)Cc1cccc(-c2ccc3[nH]c4ccc(-c5cccc(CN(CCN)CCN)c5)cc4c3c2)c1 [Compound 158]	17.5 (≈ 31.8 µM)	25 (≈ 45.5 µM)	> 50	1.56 (≈ 2.84 µM)	1.56 (≈ 2.84 µM)	615	179
NCCCn1c2cc(-c3cc(CCN)cc(CCN)c3)ccc2c2ccc(-c3cc(CCN)cc(CCN)c3)cc21 [Compound 161]	11.8 (≈ 21.5 µM)	50 (≈ 91.1 µM)	> 50	6.25 (≈ 11.4 µM)	1.56 (≈ 2.84 µM)	466	356
N=C(N)NCCCn1c2cc(-c3ccc(CCNC(=N)N)c(CCNC(=N)N)c3)ccc2c2ccc(-c3ccc(CCNC(=N)N)c(CCNC(=N)N)c3)cc21 [Compound 160]	1.48 (≈ 1.95 µM)	6.25 (≈ 8.23 µM)	3.13 (≈ 4.12 µM)	1.95 (≈ 2.57 µM)	1.56 (≈ 2.06 µM)	28	28
NCCCOc1cc(OCCCN)cc(-c2ccc3c4ccc(Br)cc4n(CCCN)c3c2)c1 [Compound 146]	44.6 (≈ 84.9 µM)	12.5 (≈ 23.8 µM)	0.39 (≈ 0.742 µM)	0.39 (≈ 0.742 µM)	50 (≈ 95.1 µM)	341	307
NCCCOc1ccc(-c2ccc3c4ccc(-c5ccc(OCCCN)cc5)cc4n(CCCN)c3c2)cc1 [Compound 152]	3.77 (≈ 7.21 µM)	3.13 (≈ 5.99 µM)	1.56 (≈ 2.98 µM)	0.39 (≈ 0.746 µM)	1.56 (≈ 2.98 µM)	12	34
NCCCn1c2cc(-c3cccc(N)c3)ccc2c2ccc(-c3cccc(N)c3)cc21 [Compound 153]		100 (≈ 246 µM)	12.5 (≈ 30.7 µM)	1.56 (≈ 3.84 µM)	12.5 (≈ 30.7 µM)	65	46
CCn1c2ccc(-c3cc(OCCCN)cc(OCCCN)c3)cc2c2cc(-c3cc(OCCCN)cc(OCCCN)c3)ccc21 [Compound 147]		6.25 (≈ 9.77 µM)	0.39 (≈ 0.61 µM)	0.098 (≈ 0.153 µM)	1.56 (≈ 2.44 µM)		
NCCCOc1cccc(-c2ccc3c4ccc(-c5cccc(OCCCN)c5)cc4n(CCCN)c3c2)c1 [Compound 150]	3.34 (≈ 6.39 µM)	3.13 (≈ 5.99 µM)	1.56 (≈ 2.98 µM)	0.049 (≈ 0.0937 µM)	0.78 (≈ 1.49 µM)	58	54
CCn1c2ccc(-c3cc(C(=O)NCCN)cc(C(=O)NCCN)c3)cc2c2cc(-c3cc(C(=O)NCCN)cc(C(=O)NCCN)c3)ccc21 [Compound 148]	8.74 (≈ 12.6 µM)	> 50	> 50	3.13 (≈ 4.52 µM)	25 (≈ 36.1 µM)	312	450
N=C(N)NCCCn1c2cc(-c3cc(CCNC(=N)N)cc(CCNC(=N)N)c3)ccc2c2ccc(-c3cc(CCNC(=N)N)cc(CCNC(=N)N)c3)cc21 [Compound 162]	3.12 (≈ 4.11 µM)	3.13 (≈ 4.12 µM)	12.5 (≈ 16.5 µM)	0.39 (≈ 0.514 µM)	1.56 (≈ 2.06 µM)	273	49
NCc1cccc(-c2ccc3[nH]c4ccc(-c5cccc(CN)c5)cc4c3c2)c1 [Compound 117]	3.1 (≈ 8.21 µM)						
NCCCn1c2cc(Br)ccc2c2ccc(Br)cc21 [Compound 141]		100 (≈ 262 µM)		12.5 (≈ 32.7 µM)	12.5 (≈ 32.7 µM)	62	107
NCCCn1c2ccccc2c2ccccc21 [Compound 139]	> 100						
